System: purified polypeptide (carbonyl reductase)
Assay: Substrate specificity of polypeptide (NADPH-dependent reduction of carbonyl compounds)
Assay type: biochemical, Candida magnoliae strain NBRC0661
Conditions: 1 mM substrate, 0.25 mM NADPH, pH 6.5, 30° C.; relative to activity to 3-oxo-3-phenylpropanenitrile

Going from `CCC(=O)Cc1ccccc1` [1-phenyl-2-butanone] to `CC(=O)CCc1ccccc1` [benzylacetone], the Relative activity falls from 1144% to 241%.

Compared with `CC(=O)c1ccccn1` [2-acetylpyridine], `CC(=O)c1cccnc1` [3-acetylpyridine] is higher in Relative activity: 1926% for the first, 2107% for the second.

Going from `CCC(C)=O` [2-butanone] to `CC(=O)CO` [hydroxyacetone], the Relative activity rises from 181% to 361%.

Going from `O=C(CCl)c1cccc(Cl)c1` [2-chloro-1-(3′-chlorophenyl)ethanone] to `CC(=O)c1ccc(Cl)cc1` [p-chloroacetophenone], the Relative activity falls from 10473% to 2347%.

Compared with `CCCCCC(C)=O` [2-heptanone], `CCCCC(C)=O` [2-hexanone] is lower in Relative activity: 782% for the first, 602% for the second.

Compared with `O=C(CO)c1ccccc1` [2-hydroxyacetophenone], `CCC(=O)c1ccccc1` [propiophenone] is higher in Relative activity: 1806% for the first, 3010% for the second.

Going from `CCC(=O)C(=O)O` [2-keto-n-butyric acid] to `O=C(O)CC(=O)C(=O)O` [oxalacetic acid], the Relative activity falls from 1866% to 421%.

First: COc1ccc(C(C)=O)cc1OC [3,4-dimethoxyacetophenone]
Second: CC(=O)c1ccc(C)cc1 [p-methylacetophenone]
The Relative activity of the first is higher: 2889% for the first, 542% for the second.

Compared with `N#CCC(=O)c1ccccc1` [3-oxo-3-phenylpropanenitrile], `CC(=O)c1ccccc1` [acetophenone] is higher in Relative activity: 100% for the first, 1023% for the second.

Going from `CC(=O)c1ccncc1` [4-acetylpyridine] to `CC(=O)c1ccc(F)cc1` [p-fluoroacetophenone], the Relative activity falls from 15710% to 722%.

First: CC(=O)CCO [4-hydroxy-2-butanone]
Second: CCOC(=O)CC(C)=O [ethyl acetoacetate]
The Relative activity of the first is lower: 301% for the first, 903% for the second.

Compared with `CC(=O)CC(C)C` [4-methyl-2-pentanone], `COC(=O)C(C)=O` [methyl pyruvate] is higher in Relative activity: 60% for the first, 9450% for the second.

Going from `CC(=O)CC(=O)OCc1ccccc1` [benzyl acetoacetate] to `CCOC(=O)CC(=O)c1ccccc1` [ethyl benzoylacetate], the Relative activity rises from 4936% to 7704%.

First: CC(=O)C1CC1 [cyclopropyl methyl ketone]
Second: CC(=O)c1cccc([N+](=O)[O-])c1 [m-nitroacetophenone]
The Relative activity of the first is lower: 181% for the first, 5056% for the second.

With `CCOC(=O)CC(=O)CCl` [ethyl 4-chloroacetoacetate] the Relative activity was 8547%.

— US8008461B2, “Carbonyl reductase, gene therefor and use thereof” (Kaneka Corporation, priority 2004, dated 2011)
